Reference: patent publication US20230172984A1, “CLEARANCE OF SENESCENT CELLS BY ACTIVATION OF iNKT CELLS” (THE REGENTS OF THE UNIVERSITY OF CALIFORNIA, priority 2020, published 2023)

Key:
[1] = tested on: lung parenchymal iNKT cells; test: Bleomycin-induced lung injury model, flow cytometry of lung iNKT cells; assay type: in vivo, mouse; settings: bleomycin-injured mice, GalCer day 10, harvest day 14; FIG. 4C
Procedure: MATERIALS AND METHODS. Mouse husbandry. All procedures involving mice were performed according to the IACUC standards following ethics approval by the animal committee at the University of California, San Francisco. Male C57BL6/J on chow or HFD fed mice. HFD mice were fed a high-fat diet (60% kcal from fat) from 6 weeks until 22 weeks of age. All experiments on HFD mice were performed at 22-24 weeks total age (16-18 weeks on HFD). Age-matched male C57BL6/J mice on standard rodent chow diet were used as controls. For the lung injury model, 10-week-old male C57BL/6J mice were used. The animals were divided into three groups: the control group, the injured group, and the α-GalCer treated group. The animals in the control group received vehicle only (i.p.) on day 10. The injured group animals received bleomycin (3 U/kg) via the intratracheal route at the start of the experiment (day 0). The animals in the α-GalCer treated groups received bleomycin (3 U/kg) on day 0, and i.p. injection of α-GalCer (2 μg/mouse) on day 10. […]
Flow cytometry of iNKT cells. eWAT SVF cells were stained with PBS57 (α-GalCer-analog) loaded onto CD1d-PE tetramers prepared by the NIH Tetramer Core and anti-CD3-APC. […] For lung, 1×10^6 cells from each sample were used to quantify iNKT cells. […]

[2] = Lynch 2012, Schipper 2012, Ji 2012; cited from earlier work
[3] = tested on: Cdkn2a^Ink4a, Ccl2, Serpine1 mRNA; test: Bleomycin-induced lung injury model, qRT-PCR of senescence and SASP markers in CD45-depleted lung cells; assay type: in vivo, mouse; settings: bleomycin-injured mice, GalCer day 10, harvest day 14; FIG. 4B
Procedure: MATERIALS AND METHODS. Mouse husbandry. All procedures involving mice were performed according to the IACUC standards following ethics approval by the animal committee at the University of California, San Francisco. Male C57BL6/J on chow or HFD fed mice. HFD mice were fed a high-fat diet (60% kcal from fat) from 6 weeks until 22 weeks of age. All experiments on HFD mice were performed at 22-24 weeks total age (16-18 weeks on HFD). Age-matched male C57BL6/J mice on standard rodent chow diet were used as controls. For the lung injury model, 10-week-old male C57BL/6J mice were used. The animals were divided into three groups: the control group, the injured group, and the α-GalCer treated group. The animals in the control group received vehicle only (i.p.) on day 10. The injured group animals received bleomycin (3 U/kg) via the intratracheal route at the start of the experiment (day 0). The animals in the α-GalCer treated groups received bleomycin (3 U/kg) on day 0, and i.p. injection of α-GalCer (2 μg/mouse) on day 10. […] RNA extraction and Quantitative reverse transcriptase PCR.RNA was extracted with RNA extraction reagent using the commercial total RNA micro-prep kit according to the product instructions. Total RNA was quantified by nanovolume photospectrometer and fluorometer. […] Quantification was performed using with the delta-delta CT method, using Cyclophilin A (Ppia) as a housekeeping gene.

[4] = tested on: iNKT cells in the eWAT; test: Flow cytometry of iNKT cells in eWAT SVF of HFD mice (CD1d tetramer); assay type: in vivo, mouse; settings: 2 μg i.p., vs obese mice treated with vehicle
Procedure: α-GalCer activation of iNKT cells. iNKT cells were activated in vivo using α-GalCer as described in Peralbo et al., 2006. Decreased frequency and proliferative response of invariant Vα24Vβ11 natural killer T (iNKT) cells in healthy elderly. Biogerontology 7, 483-492. Briefly, HFD mice were i.p. injected with 200 μl of a 10 μg/ml α-GalCer solution (2 μg total) made up in 5.6% Sucrose, 5% Tween-20. On day 3 or 4 post-injection, mice were euthanized for various experiments, as indicated.
Flow cytometry of iNKT cells. eWAT SVF cells were stained with PBS57 (α-GalCer-analog) loaded onto CD1d-PE tetramers prepared by the NIH Tetramer Core and anti-CD3-APC. As a negative control for subtracting background staining in eWAT SVF, samples were also stained with unloaded CD1d-PE tetramer and anti-CD3-APC. Live cells were enumerated with DAPI, and flow cytometry was performed on an Attune acoustic focusing cytometer. Gates were set to identify: cells (FSC-A/SSC-A), forward scatter singlets (FSC-H/FSC-A), side-scatter singlets (SSC-H/SSC-A), live cells (DAPI^−), and the PBS57::CD1d-PE^+/CD3-APC^+ subpopulation. The percent of unloaded CD1d-PE^+/CD3-APC^+ cells were subtracted from the loaded tetramer stained populations to eliminate the percent of background stained cells. For lung, 1×10^6 cells from each sample were used to quantify iNKT cells. […]

For `CCCCCCCCCCCCCCCCCCCCCCCCCC(=O)N[C@@H](CO[C@H]1O[C@H](CO)[C@H](O)[C@H](O)[C@H]1O)[C@H](O)[C@H](O)CCCCCCCCCCCCCC` [GalCer, alpha-Galactosylceramide], the “lung parenchymal iNKT cells (proportion of T cells)” value [1] is listed as “induced expansion of lung parenchymal iNKT cells”, the “metabolic phenotypes in the HFD mouse model (literature)” value [2] is listed as “reverse adverse metabolic phenotypes” and the “mRNA levels of senescence (Cdkn2a^Ink4a) and SASP (Ccl2, Serpine1) markers in CD45^− lung cells” value [3] is listed as “reduced mRNA levels of these marker genes”. The “iNKT cell numbers in eWAT” value [4] was “dramatically increase iNKT cell numbers”.
